US7928264B2, “Aminoalcohol derivatives” (Astellas Pharma Inc., priority 2004, dated 2011)

System: increase in intravesical pressure induced by carbachol in anesthetized dog
Assay: Effect on the increase in intravesical pressure induced by carbachol in anesthetized dog
Type: in vivo
Conditions: 0.032 mg/kg, administered intradermally 30 minutes before carbachol (1.8 μg/kg); female Beagle dogs under halothane anesthesia
Procedure: Effect on the increase in intravesical pressure induced by carbachol in anesthetized dog
Female Beagle dogs weighing 8.0-15.0 kg were fasted for 24 hours and maintained under halothane anesthesia. A 12F Foley catheter was lubricated with water soluble jelly, inserted into the urethral orifice, and advanced approximately 10 cm until the balloon tip was placed well inside the bladder. The balloon was then inflated with 5 ml of room air and catheter slowly withdrawn just part the first resistance that was felt at the bladder neck. Urine was completely drained out through the catheter, and 30 ml of biological saline was infused. The catheter was connected to pressure transducer, and intravesical pressure (IVP) was continuously recorded. The test compound was administered intradermally at 30 minutes before the administration of carbachol (1.8 μg/kg). Percent inhibition of IVP increase by test compound was calculated by dividing IVPa (IVP increase induced by carbachol after test compound administration) by IVPb (IVP increase induced by carbachol just before test compound administration).

Cl.O=C(NS(=O)(=O)CCO)c1ccc(-c2ccc(CCNC[C@H](O)c3ccccc3)cc2)cc1OC1CCCCC1 [Test Compound (1), 3-(Cyclohexyloxy)-N-[(2-hydroxyethyl)sulfonyl]-4′-[2-[[(2R)-2-hydroxy-2-phenylethyl]amino]ethyl]-4-biphenylcarboxamide hydrochloride]
Percent inhibition of IVP increase: 78%
